According to PubChem BioAssay AID2060609 (Molecular Pharmacology Branch, DTP, NCI, 2025):
Several values for one entry are separate records, joined by “and”; a condition that tells them apart may be missing. Equal values may be shown once.

System: 855422-203-R-J1-PDC complex spheroids, viability
Assay: Anticancer human tumor 855422-203-R-J1-PDC patient-derived bladder carcinoma cell line growth inhibition [CLK]
Details: for viability, T/C: stronger effect = lower value
Method in brief: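 Patient-derived tumor cells grown as complex spheroids with HUVEC endothelial cells and mesenchymal stem cells, treated with drug combinations. Concentrations descend in half-log steps from near clinical Cmax, or from 10 microM if Cmax unknown.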

[1] = curve of first compound, second compound 0.0316 µM
[2] = curve of first compound, second compound 0.1 µM
[3] = curve of first compound, second compound 0.316 µM
[4] = curve of first compound, second compound 1 µM
[5] = curve of first compound, second compound 3.16 µM
[6] = curve of first compound, second compound 10 µM
[7] = second compound 0.0316 µM, first compound 0.0316 µM
[8] = second compound 0.0316 µM, first compound 0.1 µM
[9] = second compound 0.1 µM, first compound 0.0316 µM
[10] = second compound 0.1 µM, first compound 0.1 µM
[11] = second compound 0.316 µM, first compound 0.0316 µM
[12] = second compound 0.316 µM, first compound 0.1 µM
[13] = second compound 1 µM, first compound 0.0316 µM
[14] = second compound 1 µM, first compound 0.1 µM
[15] = second compound 3.16 µM, first compound 0.0316 µM
[16] = second compound 3.16 µM, first compound 0.1 µM
[17] = second compound 10 µM, first compound 0.0316 µM
[18] = second compound 10 µM, first compound 0.1 µM
[19] = second compound 0.0316 µM, first compound 0.316 µM
[20] = second compound 0.0316 µM, first compound 1 µM
[21] = second compound 0.0316 µM, first compound 3.16 µM
[22] = second compound 0.0316 µM, first compound 10 µM
[23] = second compound 0.1 µM, first compound 0.316 µM
[24] = second compound 0.1 µM, first compound 1 µM
[25] = second compound 0.1 µM, first compound 3.16 µM
[26] = second compound 0.1 µM, first compound 10 µM
[27] = second compound 0.316 µM, first compound 0.316 µM
[28] = second compound 0.316 µM, first compound 1 µM
[29] = second compound 0.316 µM, first compound 3.16 µM
[30] = second compound 0.316 µM, first compound 10 µM
[31] = second compound 1 µM, first compound 0.316 µM
[32] = second compound 1 µM, first compound 1 µM
[33] = second compound 1 µM, first compound 3.16 µM
[34] = second compound 1 µM, first compound 10 µM
[35] = second compound 3.16 µM, first compound 0.316 µM
[36] = second compound 3.16 µM, first compound 1 µM
[37] = second compound 3.16 µM, first compound 3.16 µM
[38] = second compound 3.16 µM, first compound 10 µM
[39] = second compound 10 µM, first compound 0.316 µM
[40] = second compound 10 µM, first compound 1 µM
[41] = second compound 10 µM, first compound 3.16 µM
[42] = second compound 10 µM, first compound 10 µM
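Note: spheroids exposed to drugs for seven days before readout.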
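Throughout, for viability, T/C: 100% = DMSO vehicle control wells.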

For Cn1ncnc1[C@H]1c2n[nH]c(=O)c3cc(F)cc(c23)N[C@@H]1c1ccc(F)cc1 + CN1CCN(c2cc(C(=O)Nc3cc4cc(-c5cnn(C)c5)ccc4cn3)ccn2)CC1, the IC50 [1] was > 100 nM, the IC50 [2] was > 100 nM and the IC50 [3] was < 0.316 nM. For the same molecule, the IC50 [4] was < 0.316 nM, the IC50 [5] was < 0.316 nM and the IC50 [6] was < 0.316 nM. For the same molecule, the viability, T/C (second compound 0.0316 µM, first compound 0.000316 µM) was 97.4%, the viability, T/C (second compound 0.0316 µM, first compound 0.001 µM) was 101% and the viability, T/C (second compound 0.0316 µM, first compound 0.00316 µM) was 110%. The viability, T/C (second compound 0.0316 µM, first compound 0.01 µM) was 104%, the viability, T/C [7] was 113% and the viability, T/C [8] was 104%. For the same molecule, the viability, T/C (second compound 0.1 µM, first compound 0.000316 µM) was 79.5%, the viability, T/C (second compound 0.1 µM, first compound 0.001 µM) was 92.6% and the viability, T/C (second compound 0.1 µM, first compound 0.00316 µM) was 103%. It also gave a viability, T/C (second compound 0.1 µM, first compound 0.01 µM) of 87.4%, a viability, T/C [9] of 95.9% and a viability, T/C [10] of 83.8%. The viability, T/C (second compound 0.316 µM, first compound 0.000316 µM) was 5.88%, the viability, T/C (second compound 0.316 µM, first compound 0.001 µM) was 9.73% and the viability, T/C (second compound 0.316 µM, first compound 0.00316 µM) was 10.4%. It also gave a viability, T/C (second compound 0.316 µM, first compound 0.01 µM) of 9.1%, a viability, T/C [11] of 9.56% and a viability, T/C [12] of 8.15%. It also gave a viability, T/C (second compound 1 µM, first compound 0.000316 µM) of 0.17%, a viability, T/C (second compound 1 µM, first compound 0.001 µM) of 0.23% and a viability, T/C (second compound 1 µM, first compound 0.00316 µM) of 0.15%. The viability, T/C (second compound 1 µM, first compound 0.01 µM) was 0.12%, the viability, T/C [13] was 4.07% and the viability, T/C [14] was 0.15%. For the same molecule, the viability, T/C (second compound 3.16 µM, first compound 0.000316 µM) was 0.48%, the viability, T/C (second compound 3.16 µM, first compound 0.001 µM) was 0.5% and the viability, T/C (second compound 3.16 µM, first compound 0.00316 µM) was 0.41%. The viability, T/C (second compound 3.16 µM, first compound 0.01 µM) was 0.33%, the viability, T/C [15] was 0.23% and the viability, T/C [16] was 0.84%. It also gave a viability, T/C (second compound 10 µM, first compound 0.000316 µM) of 0.23%, a viability, T/C (second compound 10 µM, first compound 0.001 µM) of 1.99% and a viability, T/C (second compound 10 µM, first compound 0.00316 µM) of 0.17%. The viability, T/C (second compound 10 µM, first compound 0.01 µM) was 0.22%, the viability, T/C [17] was 0.17% and the viability, T/C [18] was 0.18%.

With Nc1ccccc1NC(=O)c1ccc(CNC(=O)OCc2cccnc2)cc1 + CN1CCN(c2cc(C(=O)Nc3cc4cc(-c5cnn(C)c5)ccc4cn3)ccn2)CC1 the IC50 [1] was 846 nM, the IC50 [2] was 486 nM and the IC50 [3] was < 31.6 nM. The IC50 [4] was < 31.6 nM, the IC50 [5] was < 31.6 nM and the IC50 [6] was < 31.6 nM. The viability, T/C [7] was 87%, the viability, T/C [8] was 72.8% and the viability, T/C [19] was 68.8%. The viability, T/C [20] was 49%, the viability, T/C [21] was 19.2% and the viability, T/C [22] was 0.56%. For the same molecule, the viability, T/C [9] was 65.2%, the viability, T/C [10] was 75.4% and the viability, T/C [23] was 58.4%. It also gave a viability, T/C [24] of 33%, a viability, T/C [25] of 10.7% and a viability, T/C [26] of 0.05%. For the same molecule, the viability, T/C [11] was 5.43%, the viability, T/C [12] was 5.82% and the viability, T/C [27] was 9.34%. It also gave a viability, T/C [28] of 3.91%, a viability, T/C [29] of 0.28% and a viability, T/C [30] of 0.06%. For the same molecule, the viability, T/C [13] was 0.15%, the viability, T/C [14] was 0.19% and the viability, T/C [31] was 0.13%. For the same molecule, the viability, T/C [32] was 0.09%, the viability, T/C [33] was 0.12% and the viability, T/C [34] was 0.09%. For the same molecule, the viability, T/C [15] was 0.53%, the viability, T/C [16] was 1.31% and the viability, T/C [35] was 0.28%. For the same molecule, the viability, T/C [36] was 0.49%, the viability, T/C [37] was 0.96% and the viability, T/C [38] was 0.28%. The viability, T/C [17] was 0.2%, the viability, T/C [18] was 0.34% and the viability, T/C [39] was 0.42%. For the same molecule, the viability, T/C [40] was 0.36%, the viability, T/C [41] was 0.31% and the viability, T/C [42] was 0.24%.

Nc1ccccc1NC(=O)c1ccc(CNC(=O)OCc2cccnc2)cc1 + CNC(=O)c1ccc(Nc2nc(OC3CCCC3)c3c(-c4ccc5nc(C)oc5c4)c[nH]c3n2)c(OC)c1 was tested, and the IC50 [1] was 1120 nM, the IC50 [2] was < 31.6 nM and the IC50 [3] was < 31.6 nM. For the same molecule, the IC50 [4] was < 31.6 nM, the IC50 [5] was < 31.6 nM and the IC50 [6] was < 31.6 nM. For the same molecule, the viability, T/C [7] was 77.8%, the viability, T/C [8] was 81.3% and the viability, T/C [19] was 79.9%. The viability, T/C [20] was 49.4%, the viability, T/C [21] was 22.4% and the viability, T/C [22] was 1.4%. The viability, T/C [9] was 46.5%, the viability, T/C [10] was 43.9% and the viability, T/C [23] was 44.9%. For the same molecule, the viability, T/C [24] was 27.7%, the viability, T/C [25] was 21.1% and the viability, T/C [26] was 1.14%. It also gave a viability, T/C [11] of 20.8%, a viability, T/C [12] of 16.2% and a viability, T/C [27] of 16.9%. For the same molecule, the viability, T/C [28] was 18.2%, the viability, T/C [29] was 15.3% and the viability, T/C [30] was 0.51%. For the same molecule, the viability, T/C [13] was 18.5%, the viability, T/C [14] was 17.9% and the viability, T/C [31] was 14.9%. The viability, T/C [32] was 13.2%, the viability, T/C [33] was 10.4% and the viability, T/C [34] was 0.17%. For the same molecule, the viability, T/C [15] was 17.5%, the viability, T/C [16] was 18.6% and the viability, T/C [35] was 12%. The viability, T/C [36] was 15.3%, the viability, T/C [37] was 7.63% and the viability, T/C [38] was 0.29%. The viability, T/C [17] was 19.9%, the viability, T/C [18] was 13.6% and the viability, T/C [39] was 16.6%. The viability, T/C [40] was 12.1%, the viability, T/C [41] was 8.45% and the viability, T/C [42] was 0.69%.

With COc1ccc([C@@H](O)c2cc(-c3ncnc4cc(N5CCOCC5)ccc34)c(F)cc2Cl)nn1 the viability, T/C (compound 0.0316 µM) was 95.2% and 115%, the viability, T/C (compound 0.1 µM) was 98.5% and 95.4% and the viability, T/C (compound 0.316 µM) was 105% and 107%. For the same molecule, the viability, T/C (compound 1 µM) was 103% and 85.6%, the viability, T/C (compound 3.16 µM) was 64.8% and 64.9% and the viability, T/C (compound 10 µM) was 35.1% and 26.4%. For the same molecule, the IC50 (curve of compound) was 5610 nM and 4900 nM.

Nc1ccn(C2OC(CO)C(O)C2(F)F)c(=O)n1 (stereo not given) + CNC(=O)c1ccc(Nc2nc(OC3CCCC3)c3c(-c4ccc5nc(C)oc5c4)c[nH]c3n2)c(OC)c1 was tested, and the IC50 [1] was < 31.6 nM, the IC50 [2] was < 31.6 nM and the IC50 [3] was < 31.6 nM. For the same molecule, the IC50 [4] was < 31.6 nM, the IC50 [5] was < 31.6 nM and the IC50 [6] was < 31.6 nM. For the same molecule, the viability, T/C [7] was 26.9%, the viability, T/C [8] was 13.1% and the viability, T/C [19] was 13%. The viability, T/C [20] was 8.48%, the viability, T/C [21] was 8.78% and the viability, T/C [22] was 6.08%. It also gave a viability, T/C [9] of 17.3%, a viability, T/C [10] of 12.1% and a viability, T/C [23] of 12.5%. For the same molecule, the viability, T/C [24] was 11.8%, the viability, T/C [25] was 7.27% and the viability, T/C [26] was 5.69%. The viability, T/C [11] was 17.4%, the viability, T/C [12] was 12.8% and the viability, T/C [27] was 12%. For the same molecule, the viability, T/C [28] was 10.3%, the viability, T/C [29] was 5.76% and the viability, T/C [30] was 5.3%. It also gave a viability, T/C [13] of 18.6%, a viability, T/C [14] of 21.8% and a viability, T/C [31] of 12.8%. For the same molecule, the viability, T/C [32] was 10.1%, the viability, T/C [33] was 9.02% and the viability, T/C [34] was 6.99%. For the same molecule, the viability, T/C [15] was 19.4%, the viability, T/C [16] was 16.6% and the viability, T/C [35] was 14.9%. The viability, T/C [36] was 10.2%, the viability, T/C [37] was 8.27% and the viability, T/C [38] was 6.69%. For the same molecule, the viability, T/C [17] was 19.3%, the viability, T/C [18] was 16.4% and the viability, T/C [39] was 14.1%. The viability, T/C [40] was 9.84%, the viability, T/C [41] was 10.5% and the viability, T/C [42] was 5.99%.
